# Laboratory results from patent US20260256863A1, “COMPOSITION, COMPRISING CINNAMOMUM CASSIA EXTRACT HAVING INNOVATIVE CKD EXTRACTION TECHNOLOGY (ICET) TECHNOLOGY APPLIED THERETO, FOR PREVENTING, ALLEVIATING, OR TREATING GASTRITIS OR PEPTIC ULCER” (CHONG KUN DANG PHARMACEUTICAL CORP., priority 2022, published 2026).
# System: acute or chronic gastritis patients with one or more erosions
# Test: Clinical trial in acute or chronic gastritis patients (gastroscopy, Example 3)
# Format: in vivo, human
# Conditions: 300 mg, 2 weeks, N=42
# Description: The Cinnamomum cassia extract of the Preparation Example 1 according to the present disclosure, placebo, and active control drug were administered to acute and chronic gastritis patients to compare and evaluate the effectiveness and safety of Cinnamomum cassia extract according to the present disclosure in a searching manner and to determine an appropriate dose. Specifically, acute or chronic gastritis patients with one or more erosions identified in a gastroscopy performed within 7 days from the start date of administration of investigational medical product were divided into the following test groups and administered for 2 weeks. • Test group I (group administered with 225 mg of Cinnamomum cassia extract according to the present disclosure) • Test group II (group administered with 450 mg of Cinnamomum cassia extract according to the present disclosure) • Control group I (group administered with placebo) • Control group II (group administered with 180 mg of ethanol soft ext. (20->1) of 95% artemisia) • Control group III (group administered with 300 mg rebamipide) • (1) Effective rate on gastroscopy: The proportion of test subjects whose erosion score on gastroscopy reduced by more than 50% after 2 weeks of administration (visit 3) compared to baseline (visit 1) was calculated according to the following Equation 1, and evaluated according to the criteria in Table 3. [table] • (1) Complete cure rate on gastroscopy: The proportion of test subjects who were completely cured to normal on gastroscopy (0 erosions: erosion score 1 point) after 2 weeks of administration (visit 3) compared to baseline (visit 1) was calculated and evaluated according to the following Equation 2.
smiles,measurement,value
O=C(NC(Cc1cc(=O)[nH]c2ccccc12)C(=O)O)c1ccc(Cl)cc1 (stereo not shown) [rebamipide],Complete cure rate on gastroscopy,40.48%
same,Effective example people (complete cure rate on gastroscopy),17 people
same,Effective example people (effective rate on gastroscopy),20 people
same,Effective rate on gastroscopy,47.62%
